# Where two headings read alike, the source gives them in different places.
# Legend:
# [1] = system: fever (Mycobacterium butyricum); assay: Antipyretic action; assay type: in vivo, rat (Wistar strain, female)
# Experimental: A suspension (0.6 mg/0.1 ml) of killed and dried Mycobacterium butyricum in liquid paraffin was subcutaneously injected in an amount of 0.1 ml into the subplantar region of the hind paw of each Wistar strain female rat weighing about 180 g. After 14 hours, the fevered rats were divided into groups, and each test compound was orally administered to each group to examine the antipyretic effect.
# uric acid in plasma = assay: Uricosuric action (b), uric acid in plasma of uric acid loaded rats; assay type: in vivo, rat (Wistar strain, male)
# Experimental: (b) After fasting overnight, the test compound was orally administered to a Wistar strain male rat weighing 150 to 200 g. After one hour, the rat was loaded with 100 mg/kg of uric acid by intraperitoneal administration. Thirty minutes thereafter, a blood sample was drawn from the cervical vein and the uric acid concentration in the plasma was determined by use of a kit (Uric acid test Wako) for the uric acid determination.
# [2] = system: Phenol Red (PSP) excretion; assay: Uricosuric action (a), inhibition of Phenol Red (PSP) excretion; assay type: in vivo, rabbit (male)
# Experimental: (a) The action was examined by the method of B. B. Brodie et al. who reported that the inhibitory action on Phenol Red (PSP) excretion correlates with the uricosuric action [Proc. Soc. Exp. Biol. Med., 86, 884 (1954)]. To a male rabbit weighing 2 to 3 kg was intraperitoneally administered the test compound. After 30 minutes, 75 mg/kg of a Phenol Red suspension was injected into the pinna vein of the rabbit and 30 minutes thereafter a blood sample was drawn from the pinna vein. The blood sample was centrifuged and the serum was diluted with physiological saline. The diluted serum was treated with 0.1 N NaOH to develop the color. The concentration of Phenol Red in the serum was determined from the absorbance at 560 mμ.
# Glomerulonephritis = assay: Action on glomerulonephritis in rats; assay type: in vivo, rat (Wistar strain, male); conditions: 25 mg/kg p.o./day
# Source text: (ii) Action on glomerulonephritis in rats
# Glomerulonephritis was induced in Wistar strain male rats (each weighing 180 to 200 g) by use of an anti-rat's kidney rabbit serum obtained from the serum of a rabbit sensitized with a homogenate of rat's kidney cortice. To the rat producing stable proteinuria was orally administered the test compound repeatedly at the rate shown in Table 12 for 2 weeks, and the inhibition of uric protein was examined.
# [3] = system: threshold value of pain due to pressure stimuli (tail); conditions: for Analgesic effect: 100% = threshold raised by 160 g
# [4] = system: prostaglandin biosynthesis (homogenate of guinea pig's lung); assay: Inhibitory action on prostaglandin biosynthesis (TBA method); conditions: read-out: ID50
# Source text: Using a homogenate of guinea pig's lung as an enzyme preparation for the biosynthesis of prostaglandin, the inhibitory activity of the test compound against the prostaglandin biosynthesis was examined by the TBA (thiobarbituric acid) method.
# [5] = system: Carrageenin-induced edema; assay: Carrageenin-induced edema; assay type: in vivo, rat (Donryu strain, male); conditions: Rattus norvegicus, po, mean in 5 hours, read-out: Inhibitory percent of swelling
# Experimental: (iii) Carrageenin-induced edema
# Each of the 6 Donryu strain male rats per group (each weighing about 140 g), which had been fasted overnight, was orally loaded with 4 ml of water and, after 30 minutes, the test compound was orally administered thereto. Thirty minutes thereafter, a 1%(Wt/V) solution of carrageenin in physiological saline was subcutaneously injected into the subplantar region of the left hind paw. At a time interval of one hour, starting from the end of the first hour till the end of the fifth hour after injection of carrageenin, the paw volume was measured by means of a manometer and pressure transducer. By comparison with the percent increase in swelling of the control group of rats to which a 0.5%(V/V) solution of Tween 80 had been administered, the mean inhibitory percent in 5 hours of swelling was calculated by the following equation: [formula]
# Vascular permeability [6] = assay: Vascular permeability in rat (Whittle's method); assay type: in vivo, rat (Wistar strain, male)
# Experimental: (ii) Vascular permeability in rat (Whittle's method)
# The test compound was orally administered to each Wistar strain male rat (weighing about 150 g) which had been fasted overnight. After 55 minutes, 0.5 ml of a 0.5% Evans Blue solution was intravenously injected. Five minutes thereafter, 0.2 ml/100 g of a 3%(V/V) acetic acid solution was intraperitoneally injected. After 60 minutes from the injection of the acetic acid solution, the rats were killed by suffocation with chloroform. After immediate laparotomy, the dye leaked into the peritoneal cavity was washed out with physiological saline. The washings were made up with the saline to 30 ml and the absorbance at 640 mμ was measured to examine the effect of the test compounds by comparing the amounts of leaked dye per rat with one another.
# [7] = system: phenylbenzoquinone writhing; assay: Analgesic activity, phenylbenzoquinone method in mouse; assay type: in vivo, mouse (ddY strain, male); conditions: for Frequency of writhing, mean ± S.E.: during 10 minutes
# Experimental: (i) Phenylbenzoquinone method in mouse
# The test compound was orally administered to each ddY strain male mouse (weighing 22±2 g; 8 mice per group). […] The frequency of writhing during 10 minutes from 5-minutes after the injection of phenylbenzoquinone was measured and compared with that of a control group to which a 0.5% Tween 80 solution was administered. The percent inhibition was calculated by the following equation: [formula]
# Adjuvant arthritis = assay: Adjuvant arthritis; assay type: in vivo, rat (Sprague-Dawley strain, male); conditions: 1 mg/kg p.o./day, mean during one week
# Experimental: A suspension containing 6 mg/ml of killed and dried Mycobacterium butyricum in liquid paraffin was subcutaneously injected into the subplantar region of the left hind paw of Sprague-Dawley strain male rats (weighing 180 to 200 g) in a proportion of 0.1 ml/rat. After 14 days, the rats having inflammatory paws of similar volumes were selected and the test compound was orally administered to the rats repeatedly at the rate shown in Table 4 during one week and the mean inhibitory percent of swelling during one week was determined.
# [8] = Test for ulcerogenic action (i), single dose, fasted rats; assay type: in vivo; conditions: rat, in vivo, po
# Experimental: (§1) (4) Test for ulcerogenic action
# (§2) After 18 hours, the rats were killed by suffocation with chloroform and their stomachs were excised. After having been filled with 5 ml of 1% formalin to fix the gastric mucosa, each stomach was incised along the greater curvature to inspect grossly the extent of injury of the gastric mucosa. The extent of injury was scored as follows: 0, no lesion; 1, petechia or erosion; 2, 1-5 small ulcers; 3, many small ulcers; 4, many large ulcers or perforation. The intestinal injury was evaluated based on the incidence of erosion.
# [9] = system: gastric mucosa and intestine; assay: as above; assay type: in vivo; conditions: for Gastric glandular score: 18 hours, score 0 (no lesion) to 4 (many large ulcers or perforation)
# Experimental: as §1, §2
# in vivo = conditions: rat, po
# Vascular permeability [10] = assay: Vascular permeability in mice (Whittle's method); assay type: in vivo, mouse (ddY strain, male); conditions: for Inhibition: dye leakage
# Experimental: (i) Vascular permeability in mice (Whittle's method)
# The test compound was orally administered to each ddY strain male mouse (weighing each about 20 g). After 20 minutes, 0.1 ml/10 g of a 4%(Wt/V) solution of Pontamine Sky Blue in physiological saline was intravenously injected and 10 minutes thereafter 0.1 ml/10 g of a 0.7%(V/V) solution of acetic acid in physiological saline was injected intraperitoneally. After 30 minutes, the mice were killed by suffocation with chloroform. After immediate laparotomy, the dye leaked into the peritoneal cavity was washed out with distilled water. The washings were made up with water to 30 ml and the absorbance at 620 mμ was measured. The amount of leaked dye per 20 g of mouse weight was compared.
# [11] = system: gastric mucosa and intestine; assay: Test for ulcerogenic action (ii), three doses, rats on normal meal; assay type: in vivo, rat (Donryu strain, male); design: scale not given here
# Experimental: (ii) In the same manner as in (i), the test compound was orally administered to each Donryu strain male rat (weighing about 180 g; 10 rats per group) which had received normal meal. The second dose was administered after 8 hours and the third dose after 16 hours from the second dose. Five hours after the last administration, the rats were treated in the same manner as in (i). The gastric mucosa injury and the intestinal injury were scored in the same manner as in (i).
# [12] = system: pain threshold (brewer's yeast, hind paw); assay: Analgesic activity, Randall-Selitto method in rat; assay type: in vivo, rat (Wistar strain, male); conditions: for Inhibition: 100% = pain threshold raised by 150 g
# Experimental: (ii) Randall-Selitto method in rat
# After one hour, the test compound was orally administered. One hour thereafter, the pain threshold value was measured four times at a time interval of one hour. The mean value of four values obtained was taken as the pain threshold value of each group of rats. The activity of the drug was assumed to be 100% when the pain threshold value was raised by 150 g.
compound,measurement,setting,value
CCCCC1C(=O)N(c2ccccc2)N(c2ccccc2)C1=O [Phenylbutazone],Mean decrease in temp.,[1]; 5 mg/kg p.o.,0.27 °C
same,Mean decrease in temp.,[1]; 20 mg/kg p.o.,1.10 °C
same,Mean decrease in temp.,[1]; 100 mg/kg p.o.,1.35 °C
same,ED1.0,"[1]; Rattus norvegicus, po",26.5 mg/kg
same,"Uric acid concentration in plasma, mean ± S.E.",uric acid in plasma; 50 mg/kg p.o.,5.3 ± 0.37 mg/dL
same,"Uric acid concentration in plasma, mean ± S.E.",uric acid in plasma; 100 mg/kg p.o.,3.3 ± 0.25 mg/dL
same,"Concentration of PSP in serum, mean ± S.E.",[2]; 50 mg/kg i.p.,174.0 ± 5.0 µg/mL
same,"Concentration of PSP in serum, mean ± S.E.",[2]; 100 mg/kg i.p.,238.0 ± 15.9 µg/mL
same,Inhibition of uric protein,Glomerulonephritis; 7th day,1.0%
same,Inhibition of uric protein,Glomerulonephritis; 14th day,11.2%
same,Analgesic effect,[3]; 25 mg/kg p.o.,26%
same,Analgesic effect,[3]; 100 mg/kg p.o.,70%
same,ED50,"[3]; Mus musculus, po",53 mg/kg
same,IC50,[4],68 µM
CC(C(=O)O)c1ccc(-c2cccs2)c(Cl)c1 (centres unmarked) [Compound C3],inhibition in vivo at 1 mg/kg,[5]; 1 mg/kg p.o.,15.2%
same,inhibition in vivo at 5 mg/kg,[5]; 5 mg/kg p.o.,42%
same,Inhibition,Vascular permeability [6]; 1 mg/kg p.o.,22.2%
same,Inhibition,Vascular permeability [6]; 5 mg/kg p.o.,44.6%
same,ED30,"Vascular permeability [6]; po, rat, read-out: ED30",1.7 mg/kg
same,"Frequency of writhing, mean ± S.E.",[7]; 10 mg/kg p.o.,23.1 ± 3.5
same,"Frequency of writhing, mean ± S.E.",[7]; 20 mg/kg p.o.,19.4 ± 3.7
same,"Frequency of writhing, mean ± S.E.",[7]; 40 mg/kg p.o.,12.4 ± 3.0
same,inhibition in vivo at 10 mg/kg,"[7]; Mus musculus, po, 10 min, writhing, 10 mg/kg p.o., read-out: Inhibition",2.1%
same,inhibition in vivo at 20 mg/kg,"[7]; Mus musculus, po, 10 min, writhing, 20 mg/kg p.o., read-out: Inhibition",17.8%
same,inhibition in vivo at 40 mg/kg,"[7]; Mus musculus, po, 10 min, writhing, 40 mg/kg p.o.",47.5%
same,ED50,"[7]; po, mouse, read-out: ED50",50 mg/kg
same,Inhibitory percent of swelling,Adjuvant arthritis,8.1%
same,TD50 at 18 h,[8],27 mg/kg
same,Intestine erosion incidence,[9]; 10 mg/kg p.o.,0/7
same,Gastric glandular score,[9]; 10 mg/kg p.o.,1.18 ± 0.30
same,Intestine erosion incidence,[9]; 30 mg/kg p.o.,0/7
same,Gastric glandular score,[9]; 30 mg/kg p.o.,1.96 ± 0.42
same,Intestine erosion incidence,[9]; 100 mg/kg p.o.,4/7
same,Gastric glandular score,[9]; 100 mg/kg p.o.,3.39 ± 0.30
same,LD50,in vivo,270 mg/kg
same,Dye leakage (P.S.B.) mean ± S.E.,Vascular permeability [10]; 5 mg/kg p.o.,289.3 ± 21.4 μg/20g
same,Dye leakage (P.S.B.) mean ± S.E.,Vascular permeability [10]; 10 mg/kg p.o.,254.2 ± 10.3 μg/20g
same,Dye leakage (P.S.B.) mean ± S.E.,Vascular permeability [10]; 20 mg/kg p.o.,226.9 ± 15.3 μg/20g
same,Inhibition,Vascular permeability [10]; 5 mg/kg p.o.,9.8%
same,Inhibition,Vascular permeability [10]; 10 mg/kg p.o.,20.8%
same,Inhibition,Vascular permeability [10]; 20 mg/kg p.o.,29.3%
same,ED30,"Vascular permeability [10]; po, mouse, read-out: ED30",20.5 mg/kg
same,"Score, intestine, mean ± S.E.",[11]; 5 mg/kg × 3 p.o.,0.83 ± 0.21
same,"Score, stomach, mean ± S.E.",[11]; 5 mg/kg × 3 p.o.,1.67 ± 0.31
same,"Score, intestine, mean ± S.E.",[11]; 15 mg/kg × 3 p.o.,1.50 ± 0.38
same,"Score, stomach, mean ± S.E.",[11]; 15 mg/kg × 3 p.o.,2.36 ± 0.14
same,Inhibition,[12]; 1 mg/kg p.o.,14.4%
same,Inhibition,[12]; 5 mg/kg p.o.,32.5%
same,Inhibition,[12]; 25 mg/kg p.o.,56.6%
same,ED50,"[12]; po, rat, read-out: ED50",16.5 mg/kg

# Reference: US4230719A, “Novel 2-[4-(3-methyl-2-thienyl)phenyl]propionic acid and pharmaceutically acceptable salt thereof and method for treating symptoms of inflammation and pain” (Toyama Chemical Co., Ltd., priority 1977, dated 1980)
